Experimental data taken from article PMC7203153, “Rational identification and characterisation of peptide ligands for targeting polysialic acid” (Scientific Reports, 2020).
Where a SMILES comes first, the peptide text is derived from it.

Test: Fluorescence anisotropy (FA) assay of peptide–PSA binding
Parameters: species or system Escherichia coli
Experimental: Peptides (Table 2) were synthesized at >95% purity (confirmed with HPLC) by Biomatik (see Supplementary Information). All peptides were N-terminally acetylated and C-terminally labelled with tetramethylrhodamine dye (TAMRA). TAMRA was chosen as a label due to its pH insensitivity compared to FAM (fluorescein) and related dyes commonly used for fluorescence assays. Experiments were conducted in black 384-well plates with non-binding surface (NBS, Corning, Inc.) to minimize background binding and enhance signal-to-noise ratio in the fluorescence-based binding assay. Titrations were carried out through addition of TAMRA-labelled peptide (8 μL, final concentration 20 nM) to CA (72 μL, final concentrations 0–1500 μM) in PBS, pH 7.4 (10 mM phosphate, 100 mM NaCl), and solutions were incubated with agitation to equilibrium at room temperature (3 h, ~20 °C). Parallel and perpendicular intensities were subsequently measured at 530 nm excitation (band width 5 nm) and 580 nm emission (band width 20 nm) in fluorescence polarization mode with a Tecan Infinite M1000 Pro plate reader. Total fluorescence intensities were also measured as a control for fluorophore properties with target binding; fluorescence intensities of free peptide were determined to be approximately equivalent to intensities with peptide–CA mixtures. At higher concentrations of free CA (control with no peptide addition), attenuation of detected light differed in parallel and perpendicular planes, so respective intensities were subtracted from peptide–CA intensities prior to anisotropy calculations. […] Unique samples were screened in at least triplicate within each titration experiment, and each peptide titration was carried out at least twice. In experimental repeats, peptide locations on plates were varied to prevent location-specific effects, if any, and different combinations of peptides were assessed at once. Anisotropies were calculated from corrected parallel and perpendicular intensities, and values were fit to the four-parameter logistic binding model[70] in MATLAB. Prior to curve fitting, anisotropy values for each peptide were transformed through subtraction of minimum values to enhance comparison between peptides. The resulting translations in binding curves were identical, within error, to change in anisotropy curves obtained through subtraction of anisotropy of free labelled peptide. Bmax and KD values obtained were used in the calculation of Bmax/KD ratios for comparison to microarray intensity values, and the Pearson correlation coefficient (r) was determined.

CC(=O)N[C@@H](Cc1ccccc1)C(=O)N[C@@H](CCCCN)C(=O)NCC(=O)N[C@@H](CCCNC(=N)N)C(=O)N[C@H](C(=O)N[C@@H](CO)C(=O)N1CCC[C@H]1C(=O)N[C@@H](CCCCN)C(=O)N[C@H](C(=O)NCC(=O)N[C@@H](C)C(=O)N1CCC[C@H]1C(=O)N[C@H](C(=O)N[C@@H](C)C(=O)N[C@H](C(N)=O)[C@@H](C)O)C(C)C)[C@@H](C)O)[C@@H](C)O [I-P24] (Ac-FKGRTSPKTGAPVAT-NH2)
binding to PSA in competitive FA assay with Neu5Ac (500 µM PSA (CA), Neu5Ac 0–150 mM, PBS pH 7.4): largely maintained
Kd (FA titration, N-acetylated, C-terminally TAMRA-labelled peptide 20 nM, CA 0–1500 μM, PBS pH 7.4 (10 mM phosphate, 100 mM NaCl), 3 h, ~20 °C, four-parameter logistic fit, at least two independent experiments, at least triplicate, * = accuracy likely poor (SE > KD)): 521 µM
Bmax/KD ratio (binding potential) (from FA curve fits, among the peptides characterised with FA): highest
